Key:
[1] = tested on: ovariectomized mouse (type I osteoporosis model animal); assay: Change of bone mass in type I osteoporosis model animal (ovariectomized mice, dosing 3 months, femur pQCT); assay type: in vivo; conditions: for Bone density Cancellous bone, relative value / Bone density whole bone, relative value / Cortical bone Bone density, relative value / Cortical bone Bone thickness, relative value / Cortical bone adventitia diameter, relative value / Cortical bone lining membrane diameter, relative value / Polar axis bone strength, relative value (Table 3): Sham group = 100; for Polar axis strength (polar coordinates strength): SSI from pQCT; for Bone density Cancellous bone / Bone density whole bone: right femur, pQCT
Description: Female Slc: ddy mice of 4 weeks old (Japan SLC, Inc.) was operated with ovariectomy to use as a type I osteoporosis model animal. Also, in order to delete the affection by invasion, a group which is operated without ovariectomy (Sham operation) is set (Sham group). These were the […] model animals.
Animal bedding were changed twice a week and always to use all fresh one, CRF-1 (Oriental Yeast Co., Ltd.) is fed as feed and deionized water as drinking water were freely given. Their body weights were weighed twice a week by the end of the experiment.
Fargesin was dissolved in 30 mL of a solution (it is referred to as “TD solution”, hereinbelow) containing 4% dimethyl sulfoxide (it is referred to as “DMSO”, hereinbelow) and 4% TWEEN 80 (both were purchased from Wako Pure Chemical Industries, Ltd.) so as that a dosage amount of fargesin becomes 20 mg/kg body wt/day, or […].
After the surgical operation, the mice were adapted to the circumstances for 5 days, and then they were divided to the Sham group, the negative control, the positive control group, and the test substance administration group (6 mice per group). The ovariectomized mice were used for the negative control group, the positive control group, and the test substance administration group.
Fargesin solution was daily administrated to the ovariectomized mice in the test group at the dosage of 20 mg/kg body wt/day (it is referred to as “F20 group”, hereinbelow) or 100 mg/kg body wt/day (it is referred to as “F100 group”, hereinbelow) for 3 month p.o.
In order to study effects of fargesin on the bone, the femur, the largest long bone, was used.
The mice in each group were killed by the cervical dislocation under diethyl ether anesthesia. Their right femurs were excised with muscles, and the muscles were removed from the femur after the excision. Lengths of the excised bones from the mice in the groups were measured, and they were dipped in 70% ethanol to be fixed.
In FIG. 3, the bone was shown schematically. The long bone (tubular bone) was composed of two thick and rounded ends (epiphysis), and thin and long part between them (a shaft). The bone extends to longitudinal direction, depending on the growth of a plate-shape epiphyseal cartilage (a growth plate) between the epiphysis and the shaft. The region of 1 mm proximal side from the A position for a measurement was set to that from 1 mm proximal region (epiphysis) from the distal growth plate as decided as the measurement region.
The bone density was measured by using the peripheral quantitative computed tomography (pQCT, XCT Research SA+, Stratec Medizintechnik GmbH, Merk Ltd) (FIG. 3B). The measurement was performed under the conditions: a diameter of 90 mm, a voxel size of 0.12 mm, a CT speed of 10 mm/sec, and a block number of 1. Bone mineral content (mg/mm), bone density (mg/cm^3), and cross section of the bone (mm^2) of the entire of tomographic images (whole bone area) were calculated.
Next, the area of the cancellous bone was extracted (peel mode 20), and then the bone mineral amount (mg/mm), the section of the bone (mm^2), and the bone density (mg/cm^3) were calculated. Further to the cortical bone, the bone mineral amount (mg/mm), the bone density (mg/cm^3), the section of the bone (mm^2), a bone thickness (mm), the periosteum perimeter of the cortical bone (mm), and the endosteum perimeter of the cortical bone (mm) were calculated.
Based on the bone diameter and the bone density measured by the pQCT, SSI was calculated. SSI is composed of Polar SSI (torsion strength in polar coordination), X-axis SSI (strength in X axis, three-point bending strength), and Y-axis SSI (Y axis strength, three-point lateral bending strength), and it is expressed by the following general equation.
Wherein, Z is the coefficient of the cross section (mm^3), CBD is the bone density of the cortical bone (mg/cm^3), and ND is the physiological bone density (1200 mg/cm^3). The coefficient Z is shown as the following equation.

MC3T3-E1 cells = assay: Osteoblast activation, ALP activity in MC3T3-E1; assay type: cell-based, mouse
Protocol: MC3T3-E1 cells ((IAA) the Institution of Physical and Chemical Research), osteoblast-like cell line derived from the mouse fetus cranial bone cells, were inoculated into the 96 well plate at 4,000 cells/well. As a medium, the basal medium prepared in the Example 3 supplemented with fargesin at 2 to 80 μM was used. Pre-culture was performed by using the basal medium only under the conditions of 5% CO2 and 37 degree centigrade for 3 days. After that, the conditioned medium was changed to fresh medium with fargesin; the culture was performed under the conditions of 5% CO2 and 37 degree centigrade for 3 days. On the day 4 from the culture start, the conditioned medium was changed to the fresh medium; the culture was further performed under the conditions of 5% CO2 and 37 degree centigrade for 3 days. After the termination of the culture, the following MTT test, measurement of ALP activities, and the staining were performed.
Measurement of the ALP activity, statistical processing of the data, and the observation of differentiated cells were performed as the same way as those in Example 3, except the staining of the osteoclast cells were omitted.

[2] = tested on: mouse monocyte macrophage type cells under RANKL stimulation; conditions: cited from earlier work
[3] = F20 group: 20 mg/kg body wt/day p.o.
[4] = F100 group: 100 mg/kg body wt/day p.o.
[5] = OVX mice, F20 group: 20 mg/kg body wt/day p.o., 3 months
[6] = OVX mice, F100 group: 100 mg/kg body wt/day p.o., 3 months

In the case of `COc1ccc([C@@H]2OC[C@H]3[C@@H]2CO[C@@H]3c2ccc3c(c2)OCO3)cc1OC` [fargesin, Fargesin], the “Bone density Cancellous bone, relative value” [1, 3] is reported as 123.0, the “Bone density whole bone, relative value” [1, 3] is reported as 100.8 and the “Cortical bone Bone density, relative value” [1, 3] is reported as “(97.4)”. For the same compound, the “Cortical bone Bone thickness, relative value” [1, 3] was “(91.1)”, the “Cortical bone adventitia diameter, relative value” [1, 3] was “(105.3)” and the “Cortical bone lining membrane diameter, relative value” [1, 3] was “(110.8)”. For the same compound, the “Polar axis bone strength, relative value (Table 3)” value [1, 3] was 104.2, the “Bone density Cancellous bone, relative value” [1, 4] was 131.3 and the “Bone density whole bone, relative value” [1, 4] was 102.2. The “Cortical bone Bone density, relative value” [1, 4] was “(95.6)”, the “Cortical bone Bone thickness, relative value” [1, 4] was “(102.5)” and the “Cortical bone adventitia diameter, relative value” [1, 4] was “(104.2)”. For the same compound, the “Cortical bone lining membrane diameter, relative value” [1, 4] was “(104.9)”, the “Polar axis bone strength, relative value (Table 3)” value [1, 4] was 71.6 and the “Cortical bone Bone density” value [1, 5] was 859.483 ± 2.479 mg/mL. For the same compound, the “Cortical bone Bone thickness” value [1, 5] was 0.329 ± 0.026 mm, the “Cortical bone adventitia diameter” value [1, 5] was 8.4160 ± 0.116 mm and the “Cortical bone lining membrane diameter” value [1, 5] was 6.347 ± 0.160 mm. For the same compound, the “Polar axis bone strength (Table 3)” value [1, 5] was 2.005 ± 0.154 mm^3, the “bone mineral mass, cancellous bone” value [1, 5] was 0.855±0.067 mg/mm and the “bone mineral mass, cortical bone” value [1, 5] was 2.087±0.160 mg/mm. The “bone mineral mass, whole bone” value [1, 5] was 3.638±0.164 mg/mm, the “cross section area of the bone, cortical bone” value [1, 5] was 2.427±0.185 mm^2 and the “cross section area of the bone, whole bone” value [1, 5] was 5.643±0.152 mm^2. For the same compound, the “Polar axis strength (polar coordinates strength)” value [1, 5] was 1.615±0.090 mm^3, the “Bone density Cancellous bone” value [1, 5] was 431.283 ± 30.506 mg/mL and the “Bone density whole bone” value [1, 5] was 644.367 ± 20.387 mg/mL. For the same compound, the “Cortical bone Bone density” value [1, 6] was 843.55 ± 8.714 mg/mL, the “Cortical bone Bone thickness” value [1, 6] was 0.370 ± 0.051 mm and the “Cortical bone adventitia diameter” value [1, 6] was 8.3300 ± 0.278 mm. The “Cortical bone lining membrane diameter” value [1, 6] was 6.010 ± 0.313 mm, the “Polar axis bone strength (Table 3)” value [1, 6] was 1.265 ± 0.147 mm^3 and the “bone cross section, whole bone” value [1, 6] was 5.550±0.351 mm^2. For the same compound, the “bone mineral mass, cancellous bone” value [1, 6] was 0.920±0.102 mg/mm, the “bone mineral mass, cortical bone” value [1, 6] was 2.240±0.320 mg/mm and the “bone mineral mass, whole bone” value [1, 6] was 3.660±0.326 mg/mm. The “cross section area of the bone, cortical bone” value [1, 6] was 2.640±0.361 mm^2, the “Polar axis strength (polar coordinates strength)” value [1, 6] was 1.666±0.087 mm^3 and the “Bone density Cancellous bone” value [1, 6] was 460.500 ± 36.222 mg/mL. For the same compound, the “Bone density whole bone” value [1, 6] was 653.300 ± 29.083 mg/mL, the “ALP stained image of osteoblast-like cells” value (MC3T3-E1 cells; 60 to 80 μM, MC3T3-E1) was “many osteoblast stained in blue were observed” and the activity at 2 µM (MC3T3-E1 cells; Mus musculus, 2 μM, MC3T3-E1, negative control = 100) was 82.8 ± 8%. It also gave an activity at 6 µM (MC3T3-E1 cells; Mus musculus, 6 μM, MC3T3-E1, negative control = 100) of 89.8 ± 9.8%, an activity at 20 µM (MC3T3-E1 cells; Mus musculus, 20 μM, MC3T3-E1, negative control = 100) of 99.8 ± 13.4% and an activity at 60 µM (MC3T3-E1 cells; Mus musculus, 60 μM, MC3T3-E1, negative control = 100) of 180 ± 31.5%. For the same compound, the activity at 80 µM (MC3T3-E1 cells; Mus musculus, 80 μM, MC3T3-E1, negative control = 100) was 167 ± 32.7%, the “phosphorylation of p38 and I-κB by RANKL stimulation” value ([2]; RANKL stimulation) was “inhibits the phosphorylation” and the “tartrate-resistant acid phosphatase activities” value ([2]; mouse monocyte macrophage type cells under RANKL stimulation, or marrow monocytoid cells in culture) was “dose-dependently inhibits”.
